Entries after “also recorded” stand apart in the source; their conditions may differ.
Key:
EAE mice = test: Experimental autoimmune encephalomyelitis (EAE) model; format: in vivo, mouse
[1] = test system: human CD4+ naive and memory T cells; test: CFSE dilution proliferation assay; format: cell-based; settings: anti-CD3/CD28 microbeads; Bi2 10 μM, JPH203 10 μM, LβhL 400 mg/L
Protocol: (§1) To analyze T cell proliferative capacity, purified isolated human CD4+ T cells were labeled with 1 μM carboxyfluorescein succinimidyl ester (CFSE; Invitrogen, Waltham, MA, USA) and then stimulated with anti-CD3/CD28 antibody coated microbeads for 4 days at 37° C. Cells were stained with 7AAD (BD Biosciences) for 10 minutes to distinguish dead cells and the extent of CFSE dilution in 7AAD-cells was measured by BD LSRFortessa to analyze proliferative capacity. Antibodies listed in Table 2 and previously known BD LSRFortessa cell analyzers were used.

human CD4+ naive T cells [2] = test: Cell viability by 7-AAD staining; format: cell-based; settings: Bi2 10 μM, 4 days
Protocol: as §1

human CD4+ naive T cells [3] = test: Th17 polarization of human CD4+ naive T cells (RT-qPCR, ELISA); format: cell-based; settings: Th17-polarized conditions, 7 days, Bi2 10 μM
Protocol: BCAT1 regulates HIF-1α through mTORC1 activation in human CD4^+ T cells. FIG. 11A relates to ubiquitin-proteasome degradation of HIF1a and inhibitors for each step. In FIG. 11B, CD4+ memory T cells were pretreated with Bi2 (10 μM), CoCl2 (100 μM), VH298 (100 μM) or MG132 (5 μM) for 1 hour and stimulated with anti-CD3/CD28 coated microbeads for 8 hours. Cell lysates were immunoblotted against HIF-1α (n=3 independent experiments). In FIG. 11C, CD4+ memory T cells were stimulated for 24 hours and then treated with CHX (0.2 μg/ml) for the specified time before being obtained. Cell lysates were immunoblotted against HIF-1α (n=3 independent experiments). In FIG. 11D, CD4^+ memory T cells were stimulated for a specified time with or without Bi2 (10 μM). […] Cell viability was analyzed by 7-AAD staining using a flow cytometer (n=3). […] The mRNA levels of genes involved in leucine metabolism were quantified using RT-qPCR (n=3). […] The mRNA expression of the signature genes of Th17 (i-j) or Th1 (k-l) and cytokines was measured by RT-qPCR and ELISA, respectively (n=5-7). […]
Total RNA was prepared using TRIzol reagent (Life Technologies, Grand Island, NY), followed by cDNA synthesis (Promega, Madison, WI), followed by real-time quantitative RT-PCR with a CFX system (Bio-Rad, Hercules, CA) using SensiFAST SYBR® Lo-ROX (Bioline, London. UK). […]

[4] = test system: TCR-stimulated human CD4+ memory T cells; test: Cytokine ELISA of culture supernatants, CD4+ memory T cells; format: cell-based
Protocol: The study protocol was reviewed and approved by the Institutional Review Board (IRB) of Seoul National University Hospital. Peripheral blood was drawn from healthy controls (HC) after obtaining written consent from study participants, and all experiments were performed according to approved guidelines. Peripheral blood mononuclear cells (PBMCs) were isolated from peripheral blood using density gradient centrifugation (Biocoll separation solution; BIOCHROM Inc., Cambridge, UK). Total CD4^+ T cells, naive T cells and memory CD4^+ T-cells were isolated in a negative selection manner from CD14^+ monocyte depleted PBMCs using the MojoSort™ Human Total CD4^+ T-Cells, CD4^+ naive T-cells and CD4^+ memory T-cell isolation kit (BioLegend, San Diego, Calif.). Purified T cells were cultured in RPMI 1640 medium (hereinafter, “complete RPMI 1640”) supplemented with 10% fetal bovine serum (FBS), 1% penicillin/streptomycin, and 1% L-glutamine. Cells were stimulated with anti-CD3/CD28-coated microbeads (1:10 ratio, Dynabeads T-Activator CD3/CD28, Thermo Fisher Scientific, Waltham, MA) in the presence of designated chemical inhibitors or reagents including 2-amino-2-norbornanecarboxylic acid (BCH), JPH203, acetate, MG132, VH298, cobalt chloride (CoCl2), cycloheximid (CHX) (all provided by Sigma-Aldrich, St. Louis, MO), BCAT1 inhibitor 2 (Bi2: provided by Cayman Chemical, Ann Arbor, MI), 3-hydroxy-3-methylbutyric acid (HMB; provided by Thermo Fisher Scientific, Waltham, MA), and L-β-homoleucine (LβhL; provided by Santa Cruz Biotechnology, Heidelberg, Germany). In some experiments, a customized medium depleted of five essential amino acids (leucine, valine, isoleucine, phenylalanine, methionine) was used (Welgene, Gyeongsan, South Korea). All amino acids used (L-leucine, L-valine, L-isoleucine, L-phenylalanine, L-methionine) were purchased from Sigma-Aldrich.
IL-17A and IFN-γ amounts in culture supernatants were quantified using commercially available human ELISA kits (IL-17A ELISA kit by eBioscience and human IFN-γ ELISA MAX Deluxe by BioLegend) according to the manufacturer's instructions. Light density was measured using an Infinite M200 instrument (Tecan, Männedorf, Switzerland).

[5] = Bi2 10 mg/kg or LβhL 1 g/kg i.p.
[6] = Bi2 10 mg/kg or LβhL 1 g/kg i.p., 10 mg/kg

O=C(NNS(=O)(=O)c1ccccc1C(F)(F)F)c1cc2cc(Cl)ccc2o1 [Bi2, BCATc inhibitor 2]
HIF-1α expression in SCMC (immunoblot) (EAE mice; Bi2 10 mg/kg i.p.): decreased
absolute number of Th17 cells co-producing IFN-γ/IL-17A (EAE mice; Bi2 10 mg/kg i.p.): significantly reduced
absolute number of spinal cord mononuclear cells (SCMC) (EAE mice; Bi2 10 mg/kg i.p.): significantly lower
proportion of CD4+ T-cells in SCMC (EAE mice; Bi2 10 mg/kg i.p.): significantly lower
relative proportion of Th17 cells co-producing IFN-γ/IL-17A (EAE mice; Bi2 10 mg/kg i.p.): did not change
cell infiltration in spinal cord (EAE mice; [5]): decrease
nerve damage, spinal cord histology (EAE mice; [5]): decrease
CD4+ T-cells producing IL-17A in spinal cord infiltrates and draining LN (EAE mice; [6]): preferentially reduced
HIF-1α expression in CD4+ T-cells of spinal cord (intracellular staining) (EAE mice; [6]): preferentially in CD4+ T-cells in SCMC but not in CD11b+F4/80+ macrophages; also recorded: reduced
EAE clinical score / severity (EAE mice; i.p. three times a week for 14 days, Bi2 10 mg/kg, LβhL 1 g/kg, 10 mg/kg): significantly lower; also recorded: alleviating the severity of disease
proliferation (CFSE dilution) [1]: no effect on proliferation
viability of activated CD4+ naive T cells (human CD4+ naive T cells [2]): no significant effect
IL-17A secretion (human CD4+ naive T cells [3]): decreased
mRNA levels of RORC and IL17A (human CD4+ naive T cells [3]): significantly reduced
IL-17A production in CD4+ memory T cells treated with statins [4]: further reduced
IFN-γ production by CD4+ memory T cells ([4]; TCR stimulation 3 days, Bi2 10 μM, JPH203 10 μM, HMB 0.4 mM, VH298 100 nM, LβhL 400 mg/L): did not affect
IL-17A production by CD4+ memory T cells ([4]; TCR stimulation 3 days, Bi2 10 μM, JPH203 10 μM, statin 10 μM, LβhL 400 mg/L): preferentially inhibited; also recorded: significantly reduced

Source: patent US20260076937A1, “COMPOSITION FOR PREVENTING OR TREATING AUTOIMMUNE DISEASES COMPRISING A BCAT1 INHIBITOR” (Seoul National University R&DB Foundation, priority 2024, published 2026)
